“And” between values parts separate entries of the source, which are not always exact repeats. Equal values may be shown once. Read-outs that look alike come from different tables or passages of the source.
What was measured:
[1] = system: antigen (egg albumin)-induced continuous dyspnea in inbred asthmatic rats; settings: 3 μg/kg i.v. before challenge; cited from earlier work
[2] = system: antigen (egg albumin)-induced continuous dyspnea in inbred asthmatic rats; assay: Asthmatic Rat Assay: duration of continuous dyspnea after aerosolized antigen challenge in sensitized inbred asthmatic rats; format: in vivo; settings: for ED50: Rattus norvegicus, po, read-out: ED50 p.o. (dose which would inhibit the duration of symptoms by 50%)
Description: Sensitized inbred "asthmatic rats" challenged with aerosolized antigen respond with symptoms of continuous dyspnea which is partly mediated by serotonin. […] These rats differ from normal rats in that they have non-specific bronchial hyperreactivity to a number of bronchoconstrictor agents (Brunet et al, J. Immunol., 131, 434 (1983)).
Pretreatment with drugs is used to measure the decrease of the duration of continuous dyspnea and, at higher doses, to eliminate the response (piechuta et a1, Immunology, 38, 385 (1979)).
(1) Animals: Male and female inbred asthmatic rats were used between 10-12 weeks of age. Their weights ranged from 190-250 gm (females) and 260-400 gm (males). Rats were matched by sex and littermates between the various treatment groups. Animals were starved overnight. Water was supplied ad lib.
(2) Materials: Egg albumin (EA), grade V, crystallized and lyophilized was obtained from Sigma Chemical Co., St. Louis. Aluminum hydroxide was obtained from the Reheis Chemical Company, Chicago. Methysergide Bimaleate was supplied by Sandoz Ltd., Basel, Switzerland. Serotonin creatinine sulfate was obtained from Calbiochem-Behring Corp., La Jolla, Calif.
(3) Apparatus: The challenge and subsequent respiratory recordings were carried out in a clear
plastic box with internal dimensions 10×6×4 inches. The top of the box was removable; in use, it was held firmly in place by four clamps and an airtight seal was maintained by a soft rubber gasket. […] A Fleisch No. 0000 pneumotachograph was inserted into one end of the box and coupled to a Grass volumetric pressure transducer (PT5-A) which was then connected to a Beckman Type R Dynograph through appropriate couplers. While aerosolizing the antigen, the outlets were open and the pneumotachograph was isolated from the chamber. The outlets were closed and the pneumotachograph and the chamber were connected during the recordings of the respiratory patterns. For challenge, 2 mL of a 3% solution of antigen in saline was placed into each nebulizer and the aerosol was generated with air from a small Potter diaphragm pump operating at 10 psi and a flow of 8 liters/min.
(4) Procedure: Rats were sensitized by injecting (s.c.) 1 mL of suspension containing 1 mg albumin (EA) and 200 mg aluminum hydroxide in saline. They were used between days 12 and 24 post sensitization. Rats were exposed to aerosol of 3% EA in saline for exactly 1 minute, then their respiratory profiles were recorded for a further 30 minutes. The duration of continuous dyspnea was measured from the respiratory recordings.
Compounds were generally administered either orally 1, 2, 4 or 6 hours prior to challenge or intravenously 2 minutes prior to challenge. Dose volume for oral treatments was 10 mL/kg and for i.v. treatments 1 mL/kg. Compounds were dissolved in distilled water. Methysergide bimaleate was dissolved in saline and administered intravenously at dose of 3 μg/kg 5 minutes before antigen challenge.
The sensitivity of various drug treatments were determined in terms of the decrease in duration of dyspnea in comparison with a group of vehicle treated controls. Usually, a compound was evaluated at a series of doses and an ED50 value was determined. This was defined as the dose (mg/kg) which would inhibit the duration of symptoms by 50%.

[3] = system: leukotrienes C4, D4 and E4 and SRS-A; assay: antagonism of leukotrienes C4, D4 and E4 and of SRS-A; settings: versus closely related compounds within the scope of EP No. 104,885
Description: The compounds of Formula I are active as antagonists of SRS-A and of leukotriene. The activity of the compounds of Formula I can be detected and evaluated by methods known in the art. See, for example, Kadin, U.S. Pat. No. 4,296,129.

[4] = 1.5 mg/kg p.o., 1 hour before challenge

CC[C@@H](CO)NC(=O)[C@@H]1C=C2c3cccc4c3c(cn4C)C[C@H]2N(C)C1 [methysergide]
blocking of the serotonin component of continuous dyspnea [1]: completely blocked

CCCc1c(O)c(C(C)=O)cc(F)c1OCCCSc1ccc([C@H](O)[C@@H](C)CC(=O)O)cc1 (relative stereo) [Ex. 93, (4R*,3S*)-4-[4-(3-(4-acetyl-6-fluoro-3-hydroxy-2-propylphenoxy)propylthio)phenyl]-4-hydroxy-3-methylbutanoic acid, reference compound]
Inhib. of Dyspnea [2, 4]: 26%

CCCc1c(OCCCS(=O)(=O)c2ccc([C@H](O)[C@@H](C)CC(=O)O)cc2)ccc(C(C)=O)c1O (relative stereo) [Ex. 77, (4R*,3S*)-4-[4-(3-(4-acetyl-3-hydroxy-2-propylphenoxy)propylsulfonyl)phenyl]-4-hydroxy-3-methybutanoic acid, reference compound]
Inhib. of Dyspnea ([2]; 0.15 mg/kg p.o., 1 hour before challenge): 33%
Inhib. of Dyspnea ([2]; 0.5 mg/kg p.o., 1 hour before challenge): 29%
Inhib. of Dyspnea [2, 4]: 29%
Inhib. of Dyspnea ([2]; 5.0 mg/kg p.o., 1 hour before challenge): 44%
ED50 ([2]; 1 hr before challenge): > 5 mg/kg

CCCc1c(O)c(C(C)=O)cc(F)c1OCCCS(=O)(=O)c1ccc([C@H](O)[C@@H](C)CC(=O)O)cc1 (relative stereo) [Compound I, (4R*,3S*)-4-[4-(3-(4-acetyl-6-fluoro-3-hydroxy-2-propylphenoxy)propyl-sulfonyl)phenyl]-4-hydroxy-3-methylbutanoic acid]
potency as antagonists of leukotrienes C4, D4 and E4 and of SRS-A [3]: unexpectedly much more potent
Inhib. of Dyspnea ([2]; 0.05 mg/kg p.o., 2 hours before challenge): 40%
Inhib. of Dyspnea ([2]; 0.15 mg/kg p.o., 2 hours before challenge): 48%
Inhib. of Dyspnea ([2]; 0.5 mg/kg p.o., 2 hours before challenge): 57%
Inhib. of Dyspnea [2, 4]: 55%
Inhib. of Dyspnea ([2]; 1.5 mg/kg p.o., 2 hours before challenge): 59% and 65%
Inhib. of Dyspnea ([2]; 1.5 mg/kg p.o., 4 hours before challenge): 65%
Inhib. of Dyspnea ([2]; 1.5 mg/kg p.o., 6 hours before challenge): 63%
ED50 ([2]; 2 hrs before challenge): 0.21 mg/kg
absorption by the oral route ([2]; judged from activity p.o. in the Asthmatic Rat Assay): good absorption by the oral route
duration of action ([2]; p.o., in words): satisfactory duration of action
potency ([2]; p.o., in words): high potency
activity compared with the closely related reference compounds ([2]; versus Ex. 77 and Ex. 93 of EP 104,885, p.o.): significantly more active than the closely related reference compounds
